In the assay the target is recombinant CD73 (Homo sapiens (Human), UniProt P21589). Description: Inhibition of the CD73 enzyme in vitro (soluble recombinant CD73, AMP, Malachite Green). The conditions noted are these: recombinant CD73 0.5 nM, AMP 50 μM, 30 minutes at room temperature. In kind it is biochemical. On the procedure: The concentration of inorganic phosphate was determined using a phosphate standard curve.
recombinant CD73, sequence (P21589 27-547): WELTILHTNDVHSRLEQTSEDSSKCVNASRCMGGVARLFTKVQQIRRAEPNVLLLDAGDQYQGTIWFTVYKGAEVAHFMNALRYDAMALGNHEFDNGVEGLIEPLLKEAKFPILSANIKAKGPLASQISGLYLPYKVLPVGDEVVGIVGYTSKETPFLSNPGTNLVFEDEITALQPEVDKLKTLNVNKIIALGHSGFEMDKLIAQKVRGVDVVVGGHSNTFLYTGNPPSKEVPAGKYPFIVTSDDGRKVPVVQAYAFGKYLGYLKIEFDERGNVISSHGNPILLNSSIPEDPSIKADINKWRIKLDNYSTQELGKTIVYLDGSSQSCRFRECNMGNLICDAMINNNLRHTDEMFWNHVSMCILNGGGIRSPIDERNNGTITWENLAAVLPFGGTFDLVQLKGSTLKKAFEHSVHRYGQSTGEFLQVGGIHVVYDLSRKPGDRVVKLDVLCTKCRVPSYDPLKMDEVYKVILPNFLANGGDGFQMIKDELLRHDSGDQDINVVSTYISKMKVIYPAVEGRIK
Regarding `Nc1nc(Cl)nc2c1ncn2[C@@H]1O[C@H](COC(Cc2ccc(OCc3ccccc3)cc2)(C(=O)O)C(=O)O)[C@@H](O)[C@@H]1F` [compound 65, 2-(((2R,3R,4S,5R)-5-(6-amino-2-chloro-9H-purin-9-yl)-4-fluoro-3-hydroxytetrahydrofuran-2-yl)methoxy)-2-(4-(benzyloxy)benzyl)malonic acid], the IC50 is 31 nM.

For `Nc1nc(Cl)nc2c1ncn2[C@@H]1O[C@H](COC(Cc2ccc(O)cc2)(C(=O)O)C(=O)O)[C@@H](O)[C@@H]1F` [compound 66, 2-(((2R,3R,4S,5R)-5-(6-amino-2-chloro-9H-purin-9-yl)-4-fluoro-3-hydroxytetrahydrofuran-2-yl)methoxy)-2-(4-hydroxybenzyl) malonic acid], the IC50 was found to be 133 nM. Take `Nc1nc(Cl)nc2c1ncn2[C@@H]1O[C@H](COC(Cc2csc(C(=O)O)n2)(C(=O)O)C(=O)O)[C@@H](O)[C@@H]1F` [compound 68, 2-(((2R,3R,4S,5R)-5-(6-amino-2-chloro-9H-purin-9-yl)-4-fluoro-3-hydroxytetrahydro-furan-2-yl)methoxy)-2-((2-carboxythiazol-4-yl)methyl)malonic acid]: the IC50 came to 322 nM. As for `Nc1nc(Cl)nc2c1ncn2[C@@H]1O[C@H](COC(Cc2csc(C(=O)O)c2)(C(=O)O)C(=O)O)[C@@H](O)[C@@H]1F` [compound 76, 2-(((2R,3R,4S,5R)-5-(6-amino-2-chloro-9H-purin-9-yl)-4-fluoro-3-hydroxytetrahydro-furan-2-yl)methoxy)-2-((5-carboxythiophen-3-yl)methyl)malonic acid], the figure is 74 nM. For `Nc1nc(Cl)nc2c1ncn2[C@@H]1O[C@H](COC(Cc2ccc(C(=O)O)s2)(C(=O)O)C(=O)O)[C@@H](O)[C@@H]1F` [compound 77, 2-(((2R,3R,4S,5R)-5-(6-amino-2-chloro-9H-purin-9-yl)-4-fluoro-3-hydroxytetrahydro-furan-2-yl)methoxy)-2-((5-carboxythiophen-2-yl)methyl)malonic acid], the IC50 was found to be 255 nM. The value for `Nc1nc(Cl)nc2c1ncn2[C@@H]1O[C@H](COC(Cc2ccc(CC(=O)O)cc2)(C(=O)O)C(=O)O)[C@@H](O)[C@@H]1F` [compound 78, 2-(((2R,3R,4S,5R)-5-(6-amino-2-chloro-9H-purin-9-yl)-4-fluoro-3-hydroxytetrahydrofuran-2-yl)methoxy)-2-(4-(carboxymethyl)benzyl) malonic acid] was 86 nM; that for `Nc1nc(Cl)nc2c1ncn2[C@@H]1O[C@H](COC(Cc2ccc(Cl)cc2F)(C(=O)O)C(=O)O)[C@@H](O)[C@@H]1F` [compound 80, 2-(((2R,3R,4S,5R)-5-(6-amino-2-chloro-9H-purin-9-yl)-4-fluoro-3-hydroxytetrahydrofuran-2-yl)methoxy)-2-(4-chloro-2-fluorobenzyl)malonic acid] was 44 nM. The value for `Nc1nc(Cl)nc2c1ncn2[C@@H]1O[C@H](COC(Cc2cc(C(=O)O)no2)(C(=O)O)C(=O)O)[C@@H](O)[C@@H]1F` [compound 83, 2-(((2R,3R,4S,5R)-5-(6-amino-2-chloro-9H-purin-9-yl)-4-fluoro-3-hydroxytetrahydrofuran-2-yl)methoxy)-2-((3-carboxyisoxazol-5-yl)methyl)malonic acid] was 6440 nM; that for `COc1ccc(CC(OC[C@H]2O[C@@H](n3cnc4c(N)nc(Cl)nc43)[C@@H](F)[C@@H]2O)(C(=O)O)C(=O)O)cc1Cl` [compound 85, 2-(((2R,3R,4S,5R)-5-(6-amino-2-chloro-9H-purin-9-yl)-4-fluoro-3-hydroxytetrahydrofuran-2-yl)methoxy)-2-(3-chloro-4-methoxybenzyl)malonic acid] was 183 nM. The value for `Nc1nc(Cl)nc2c1ncn2[C@@H]1O[C@H](COC(Cc2ccc(S(N)(=O)=O)cc2)(C(=O)O)C(=O)O)[C@@H](O)[C@@H]1F` [compound 86, 2-(((2R,3R,4S,5R)-5-(6-amino-2-chloro-9H-purin-9-yl)-4-fluoro-3-hydroxytetrahydrofuran-2-yl)methoxy)-2-(4-sulfamoylbenzyl)malonic acid] was 62 nM; that for `Nc1nc(Cl)nc2c1ncn2[C@@H]1O[C@H](COC(Cc2ccc(C(=O)NCCC(=O)O)cc2)(C(=O)O)C(=O)O)[C@@H](O)[C@@H]1F` [compound 87, 2-(((2R,3R,4S,5R)-5-(6-amino-2-chloro-9H-purin-9-yl)-4-fluoro-3-hydroxytetrahydro-furan-2-yl)methoxy)-2-(4-((2-carboxy-ethyl)carbamoyl)benzyl) malonic acid] was 83 nM; that for `Nc1nc(Cl)nc2c1ncn2[C@@H]1O[C@H](COC(Cc2ccc3oc(C(=O)O)cc3c2)(C(=O)O)C(=O)O)[C@@H](O)[C@@H]1F` [compound 88, 2-(((2R,3R,4S,5R)-5-(6-amino-2-chloro-9H-purin-9-yl)-4-fluoro-3-hydroxytetrahydro-furan-2-yl)methoxy)-2-((2-carboxybenzofuran-5-yl)methyl)malonic acid] was 238 nM. On to `Nc1nc(Cl)nc2c1ncn2[C@@H]1O[C@H](COC(Cc2ccc(OCC(F)(F)F)cc2)(C(=O)O)C(=O)O)[C@@H](O)[C@@H]1F` [compound 89, 2-(((2R,3R,4S,5R)-5-(6-amino-2-chloro-9H-purin-9-yl)-4-fluoro-3-hydroxytetrahydrofuran-2-yl)methoxy)-2-(4-(2,2,2-trifluoroethoxy)benzyl) malonic acid], for which the IC50 worked out at 43 nM.

Take `Nc1nc(Cl)nc2c1ncn2[C@@H]1O[C@H](COC(Cc2ccc(OCC(=O)O)cc2)(C(=O)O)C(=O)O)[C@@H](O)[C@@H]1F` [compound 92, 2-(((2R,3R,4S,5R)-5-(6-amino-2-chloro-9H-purin-9-yl)-4-fluoro-3-hydroxytetrahydrofuran-2-yl)methoxy)-2-(4-(carboxymethoxy)benzyl) malonic acid]: the IC50 came out at 172 nM. As for `Cc1nnc(-c2ccc(CC(OC[C@H]3O[C@@H](n4cnc5c(N)nc(Cl)nc54)[C@@H](F)[C@@H]3O)(C(=O)O)C(=O)O)cc2)o1` [compound 94, 2-(((2R,3R,4S,5R)-5-(6-amino-2-chloro-9H-purin-9-yl)-4-fluoro-3-hydroxytetrahydrofuran-2-yl)methoxy)-2-(4-(5-methyl-1,3,4-oxadiazol-2-yl)benzyl) malonic acid], the figure is 906 nM. As for `N#Cc1ccccc1-c1ccc(CC(OC[C@H]2O[C@@H](n3cnc4c(N)nc(Cl)nc43)[C@@H](F)[C@@H]2O)(C(=O)O)C(=O)O)cc1` [compound 95], the figure is 105 nM; as for `Nc1nc(Cl)nc2c1ncn2[C@@H]1O[C@H](COC(Cc2csc3ccc(Cl)cc23)(C(=O)O)C(=O)O)[C@@H](O)[C@@H]1F` [compound 96, 2-(((2R,3R,4S,5R)-5-(6-amino-2-chloro-9H-purin-9-yl)-4-fluoro-3-hydroxytetrahydrofuran-2-yl)methoxy)-2-((5-chlorobenzo[b]thiophen-3-yl)methyl)-malonic acid], 788 nM; as for `Nc1nc(Cl)nc2c1ncn2[C@@H]1O[C@H](COC(Cc2nc3ccccc3s2)(C(=O)O)C(=O)O)[C@@H](O)[C@@H]1F` [compound 97, 2-(((2R,3R,4S,5R)-5-(6-amino-2-chloro-9H-purin-9-yl)-4-fluoro-3-hydroxytetrahydrofuran-2-yl)methoxy)-2-(benzo[d]thiazol-2-ylmethyl)malonic acid], 3430 nM.

The values above are taken from patent US11034715B2, “Ectonucleotidase inhibitors and methods of use thereof” (Calithera Biosciences, Inc., priority 2016, dated 2021).
